Among the data in paper PMC10004634 (PLOS ONE, 2023) are remaining binding values, retold here.

SMILES strings stand for the structures. Like-named read-outs stand apart in the source and are kept apart here.

Targets include SBK1 (Homo sapiens, UniProt Q52WX2); CAMK4 (Homo sapiens, UniProt Q16566); PIM2 (Homo sapiens, UniProt Q9P1W9); KIT(V559D) (Homo sapiens, UniProt P10721, V559D); ROCK2 (Homo sapiens, UniProt O75116).
Test in all cases: biochemical
What all share (design): KINOMEscan scanMAX competition binding, DNA-tagged kinases, qPCR read-out, percent control at 300 nM

Another experiment concerns the target T1, LATS1 (Homo sapiens, UniProt O95835).
T1 sequence (O95835 1-1130): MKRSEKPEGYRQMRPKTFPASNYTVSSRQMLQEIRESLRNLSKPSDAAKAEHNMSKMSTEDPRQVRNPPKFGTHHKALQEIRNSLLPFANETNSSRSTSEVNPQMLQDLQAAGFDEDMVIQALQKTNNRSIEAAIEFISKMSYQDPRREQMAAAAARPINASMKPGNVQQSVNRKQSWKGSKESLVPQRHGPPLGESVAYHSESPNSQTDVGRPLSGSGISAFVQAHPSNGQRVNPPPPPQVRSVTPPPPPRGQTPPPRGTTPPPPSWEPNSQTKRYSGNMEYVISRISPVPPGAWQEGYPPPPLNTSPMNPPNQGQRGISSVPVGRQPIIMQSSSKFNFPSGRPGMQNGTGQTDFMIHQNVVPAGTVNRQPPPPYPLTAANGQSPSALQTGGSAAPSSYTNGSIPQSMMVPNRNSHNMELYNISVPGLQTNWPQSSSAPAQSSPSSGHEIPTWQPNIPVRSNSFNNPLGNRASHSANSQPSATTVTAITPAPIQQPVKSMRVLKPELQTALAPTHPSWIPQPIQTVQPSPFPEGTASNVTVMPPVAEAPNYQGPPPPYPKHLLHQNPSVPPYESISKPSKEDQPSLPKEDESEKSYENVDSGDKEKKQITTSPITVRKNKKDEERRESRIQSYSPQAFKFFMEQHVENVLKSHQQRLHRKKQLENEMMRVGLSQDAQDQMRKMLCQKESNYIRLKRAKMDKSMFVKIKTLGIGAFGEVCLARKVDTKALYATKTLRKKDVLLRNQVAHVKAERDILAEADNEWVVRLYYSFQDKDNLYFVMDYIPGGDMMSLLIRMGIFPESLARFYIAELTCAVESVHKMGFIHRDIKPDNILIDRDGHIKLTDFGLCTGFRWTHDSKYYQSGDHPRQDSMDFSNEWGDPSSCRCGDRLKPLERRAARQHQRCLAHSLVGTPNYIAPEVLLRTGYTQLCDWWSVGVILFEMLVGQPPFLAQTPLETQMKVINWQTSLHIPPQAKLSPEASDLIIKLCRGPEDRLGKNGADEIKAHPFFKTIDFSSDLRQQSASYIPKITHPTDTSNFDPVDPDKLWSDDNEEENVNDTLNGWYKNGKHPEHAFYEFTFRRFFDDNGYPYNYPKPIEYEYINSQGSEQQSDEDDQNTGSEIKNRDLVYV

Another experiment addresses T2, p38-alpha (Homo sapiens, UniProt Q16539).
T2 construct: gene MAPK14

For another experiment, the target named is T3, LATS2 (Homo sapiens, UniProt Q9NRM7).
T3 sequence (Q9NRM7 1-1088): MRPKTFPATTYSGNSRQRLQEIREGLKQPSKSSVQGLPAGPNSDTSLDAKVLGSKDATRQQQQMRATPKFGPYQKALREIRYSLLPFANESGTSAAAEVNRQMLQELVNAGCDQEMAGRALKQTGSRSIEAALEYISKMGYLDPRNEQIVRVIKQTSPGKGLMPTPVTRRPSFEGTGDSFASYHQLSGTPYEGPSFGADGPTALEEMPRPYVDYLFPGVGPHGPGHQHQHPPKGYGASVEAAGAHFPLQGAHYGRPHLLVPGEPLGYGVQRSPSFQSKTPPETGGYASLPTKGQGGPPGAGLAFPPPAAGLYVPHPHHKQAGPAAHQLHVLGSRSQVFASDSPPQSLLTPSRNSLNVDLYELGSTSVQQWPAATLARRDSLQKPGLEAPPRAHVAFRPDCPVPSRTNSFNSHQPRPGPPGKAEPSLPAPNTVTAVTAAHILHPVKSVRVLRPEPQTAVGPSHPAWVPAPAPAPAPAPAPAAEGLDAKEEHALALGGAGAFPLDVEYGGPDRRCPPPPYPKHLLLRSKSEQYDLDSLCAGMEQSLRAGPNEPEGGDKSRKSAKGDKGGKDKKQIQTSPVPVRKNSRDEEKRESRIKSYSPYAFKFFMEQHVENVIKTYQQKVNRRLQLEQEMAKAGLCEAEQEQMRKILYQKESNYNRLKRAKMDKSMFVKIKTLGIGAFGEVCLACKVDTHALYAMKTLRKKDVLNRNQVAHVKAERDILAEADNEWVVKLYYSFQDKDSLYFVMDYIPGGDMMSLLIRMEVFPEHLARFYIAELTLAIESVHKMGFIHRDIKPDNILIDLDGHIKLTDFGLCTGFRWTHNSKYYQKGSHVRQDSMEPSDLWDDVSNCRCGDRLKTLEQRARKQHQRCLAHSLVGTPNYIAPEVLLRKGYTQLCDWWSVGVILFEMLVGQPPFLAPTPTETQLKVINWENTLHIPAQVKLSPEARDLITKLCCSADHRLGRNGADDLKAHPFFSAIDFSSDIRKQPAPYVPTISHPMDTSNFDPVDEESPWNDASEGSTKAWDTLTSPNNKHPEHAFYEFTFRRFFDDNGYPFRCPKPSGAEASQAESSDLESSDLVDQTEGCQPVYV

The mark [1] stands for this setting: read-out: Percent control / Zanubrutinib.
The mark [2] stands for this setting: read-out: Percent control / Tirabrutinib.
[3] abbreviates: read-out: Percent control / Ibrutinib.
The mark [4] stands for this setting: read-out: Percent control / Acalabrutinib.

KIT(V559D), sequence (P10721 whole entry V559D): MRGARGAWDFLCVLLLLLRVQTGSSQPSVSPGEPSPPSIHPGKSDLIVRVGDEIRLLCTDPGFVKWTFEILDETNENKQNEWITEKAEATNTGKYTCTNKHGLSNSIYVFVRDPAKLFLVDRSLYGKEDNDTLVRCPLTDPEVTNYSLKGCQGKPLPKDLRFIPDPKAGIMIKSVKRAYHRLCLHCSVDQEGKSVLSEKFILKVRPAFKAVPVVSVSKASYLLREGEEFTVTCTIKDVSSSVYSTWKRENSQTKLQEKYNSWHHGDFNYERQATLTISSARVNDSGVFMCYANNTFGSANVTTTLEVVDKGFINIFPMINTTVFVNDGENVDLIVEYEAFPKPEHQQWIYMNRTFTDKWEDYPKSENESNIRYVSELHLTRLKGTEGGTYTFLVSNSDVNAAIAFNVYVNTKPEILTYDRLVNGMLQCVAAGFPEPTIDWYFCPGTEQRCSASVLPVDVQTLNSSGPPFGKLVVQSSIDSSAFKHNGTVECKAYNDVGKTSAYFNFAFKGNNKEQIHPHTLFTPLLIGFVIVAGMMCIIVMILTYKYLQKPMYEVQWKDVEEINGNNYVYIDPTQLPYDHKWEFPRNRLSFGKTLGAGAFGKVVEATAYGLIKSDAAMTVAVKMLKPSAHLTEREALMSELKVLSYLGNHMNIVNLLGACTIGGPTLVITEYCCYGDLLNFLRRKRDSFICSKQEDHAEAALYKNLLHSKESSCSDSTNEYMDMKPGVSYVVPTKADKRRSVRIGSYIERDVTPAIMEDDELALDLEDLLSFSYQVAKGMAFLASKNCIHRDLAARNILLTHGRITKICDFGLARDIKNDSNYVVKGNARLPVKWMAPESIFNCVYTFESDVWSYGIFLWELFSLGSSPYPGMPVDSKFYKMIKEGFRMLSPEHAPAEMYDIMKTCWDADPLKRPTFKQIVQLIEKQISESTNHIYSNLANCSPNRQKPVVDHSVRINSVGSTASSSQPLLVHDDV
CAMK4, sequence (Q16566 whole entry, looked up): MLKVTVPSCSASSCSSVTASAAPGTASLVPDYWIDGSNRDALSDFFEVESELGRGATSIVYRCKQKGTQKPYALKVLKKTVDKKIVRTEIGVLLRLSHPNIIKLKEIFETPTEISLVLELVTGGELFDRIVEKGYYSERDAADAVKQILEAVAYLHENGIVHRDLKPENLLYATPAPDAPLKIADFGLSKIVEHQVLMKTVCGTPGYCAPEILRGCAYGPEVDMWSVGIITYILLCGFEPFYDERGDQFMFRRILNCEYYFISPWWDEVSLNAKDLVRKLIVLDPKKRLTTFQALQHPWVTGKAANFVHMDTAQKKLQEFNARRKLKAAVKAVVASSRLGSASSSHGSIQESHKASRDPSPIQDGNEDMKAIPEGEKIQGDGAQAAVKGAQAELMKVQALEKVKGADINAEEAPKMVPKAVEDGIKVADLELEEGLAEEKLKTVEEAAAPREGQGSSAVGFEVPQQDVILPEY
SBK1, sequence (Q52WX2 whole entry): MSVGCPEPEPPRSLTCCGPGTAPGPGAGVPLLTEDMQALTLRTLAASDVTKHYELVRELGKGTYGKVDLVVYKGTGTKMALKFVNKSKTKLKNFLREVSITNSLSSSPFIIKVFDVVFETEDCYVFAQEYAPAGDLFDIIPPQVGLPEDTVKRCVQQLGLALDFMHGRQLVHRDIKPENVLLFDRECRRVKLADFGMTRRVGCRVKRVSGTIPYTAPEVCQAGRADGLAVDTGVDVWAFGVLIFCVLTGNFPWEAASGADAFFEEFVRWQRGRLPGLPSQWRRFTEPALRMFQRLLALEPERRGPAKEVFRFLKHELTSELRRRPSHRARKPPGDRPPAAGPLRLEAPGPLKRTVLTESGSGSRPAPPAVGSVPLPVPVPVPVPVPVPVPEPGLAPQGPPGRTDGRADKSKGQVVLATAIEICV
PIM2, sequence (Q9P1W9 whole entry): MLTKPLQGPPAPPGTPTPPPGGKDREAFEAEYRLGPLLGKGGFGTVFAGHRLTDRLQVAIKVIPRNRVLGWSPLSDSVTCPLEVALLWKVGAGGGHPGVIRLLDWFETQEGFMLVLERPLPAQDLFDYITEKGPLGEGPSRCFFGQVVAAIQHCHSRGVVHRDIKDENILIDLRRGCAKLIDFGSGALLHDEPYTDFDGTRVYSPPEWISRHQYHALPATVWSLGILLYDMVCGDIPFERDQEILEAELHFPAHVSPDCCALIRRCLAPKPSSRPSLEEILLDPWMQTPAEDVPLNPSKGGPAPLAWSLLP
T2 sequence (Q16539 whole entry): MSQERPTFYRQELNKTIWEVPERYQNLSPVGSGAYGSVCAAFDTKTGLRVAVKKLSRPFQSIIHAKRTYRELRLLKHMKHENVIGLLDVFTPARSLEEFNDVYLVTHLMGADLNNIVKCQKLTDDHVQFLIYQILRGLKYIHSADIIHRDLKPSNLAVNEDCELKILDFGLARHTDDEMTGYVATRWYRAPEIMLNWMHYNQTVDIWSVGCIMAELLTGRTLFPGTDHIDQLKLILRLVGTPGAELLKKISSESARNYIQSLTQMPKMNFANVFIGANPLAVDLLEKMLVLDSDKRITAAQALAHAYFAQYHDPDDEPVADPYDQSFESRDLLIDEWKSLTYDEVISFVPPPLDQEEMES
ROCK2, sequence (O75116 whole entry): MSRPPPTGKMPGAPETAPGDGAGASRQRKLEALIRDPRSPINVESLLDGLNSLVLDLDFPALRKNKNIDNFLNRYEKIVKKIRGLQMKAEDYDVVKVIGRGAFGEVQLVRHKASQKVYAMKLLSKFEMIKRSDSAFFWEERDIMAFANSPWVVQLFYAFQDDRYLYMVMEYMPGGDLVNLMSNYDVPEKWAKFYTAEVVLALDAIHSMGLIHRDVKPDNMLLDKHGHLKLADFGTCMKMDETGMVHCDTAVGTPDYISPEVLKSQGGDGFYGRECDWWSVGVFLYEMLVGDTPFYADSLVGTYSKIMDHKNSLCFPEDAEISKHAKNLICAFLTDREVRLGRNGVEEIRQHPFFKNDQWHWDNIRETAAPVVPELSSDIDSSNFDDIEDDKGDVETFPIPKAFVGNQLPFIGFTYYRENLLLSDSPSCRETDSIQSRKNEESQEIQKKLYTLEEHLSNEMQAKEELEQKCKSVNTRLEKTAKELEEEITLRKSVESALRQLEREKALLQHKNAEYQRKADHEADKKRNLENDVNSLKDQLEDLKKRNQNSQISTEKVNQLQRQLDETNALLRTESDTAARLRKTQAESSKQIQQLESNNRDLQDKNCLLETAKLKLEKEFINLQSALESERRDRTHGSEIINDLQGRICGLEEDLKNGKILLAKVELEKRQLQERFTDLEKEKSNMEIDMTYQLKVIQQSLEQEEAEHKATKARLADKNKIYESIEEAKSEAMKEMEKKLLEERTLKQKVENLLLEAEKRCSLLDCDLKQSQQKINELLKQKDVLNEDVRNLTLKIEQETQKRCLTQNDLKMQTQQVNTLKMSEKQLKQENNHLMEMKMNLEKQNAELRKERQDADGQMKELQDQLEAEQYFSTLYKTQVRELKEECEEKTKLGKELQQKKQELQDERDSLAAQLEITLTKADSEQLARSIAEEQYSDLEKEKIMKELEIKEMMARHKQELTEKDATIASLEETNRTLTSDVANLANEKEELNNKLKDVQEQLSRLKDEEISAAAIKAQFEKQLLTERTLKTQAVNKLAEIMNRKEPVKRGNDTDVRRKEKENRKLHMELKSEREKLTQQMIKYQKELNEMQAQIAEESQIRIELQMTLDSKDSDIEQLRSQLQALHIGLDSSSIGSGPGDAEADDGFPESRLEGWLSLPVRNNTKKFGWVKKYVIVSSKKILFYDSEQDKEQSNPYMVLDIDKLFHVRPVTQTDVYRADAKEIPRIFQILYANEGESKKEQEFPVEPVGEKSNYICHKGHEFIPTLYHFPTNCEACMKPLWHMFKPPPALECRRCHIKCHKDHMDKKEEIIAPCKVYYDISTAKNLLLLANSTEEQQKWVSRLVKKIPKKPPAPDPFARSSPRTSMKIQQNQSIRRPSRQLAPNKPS

For the compound `C=CC(=O)N1CCC([C@@H]2CCNc3c(C(N)=O)c(-c4ccc(Oc5ccccc5)cc4)nn32)CC1` [Zanubrutinib], the remaining binding at 0.3 µM at SBK1 (setting [1]) is 94%; on LATS1 (setting [1]) it was 72%; at CAMK4 (setting [1]) it was 91%; at PIM2 (setting [1]), 96%; at p38-alpha (setting [1]), 97%; on KIT(V559D) (setting [1]) it was 87%. In addition, the remaining binding at 0.3 µM on ROCK2 (setting [1]) was determined as 85%; at LATS2 (setting [1]) it was 82%.
With `CC#CC(=O)N1CC[C@@H](n2c(=O)n(-c3ccc(Oc4ccccc4)cc3)c3c(N)ncnc32)C1` [Tirabrutinib], the remaining binding at 0.3 µM worked out at 53% at SBK1 (setting [2]); 82% at CAMK4 (setting [2]); 99% on PIM2 (setting [2]); 92% on p38-alpha (setting [2]); 90% on ROCK2 (setting [2]); 92% on LATS2 (setting [2]).
Turning to `C=CC(=O)N1CCC[C@@H](n2nc(-c3ccc(Oc4ccccc4)cc3)c3c(N)ncnc32)C1` [Ibrutinib], the remaining binding at 0.3 µM at SBK1 (setting [3]) was found to be 47%; at LATS1 (setting [3]), 83%; on CAMK4 (setting [3]), 96%; at PIM2 (setting [3]), 96%; on p38-alpha (setting [3]), 98%; on KIT(V559D) (setting [3]) it was 55%. The remaining binding at 0.3 µM at ROCK2 (setting [3]) came out at 84%.
On to `CC#CC(=O)N1CCC[C@H]1c1nc(-c2ccc(C(=O)Nc3ccccn3)cc2)c2c(N)nccn12` [Acalabrutinib], for which the remaining binding at 0.3 µM on SBK1 (setting [4]) turned out to be 91%; at LATS1 (setting [4]) it was 79%; on p38-alpha (setting [4]), 85%; at KIT(V559D) (setting [4]), 84%; on ROCK2 (setting [4]) it was 94%; at LATS2 (setting [4]) it was 90%.
